Assay results: patent publication US20100152128A1, “Antiviral Agents” (priority 2007, published 2010)
Like-named read-outs stand apart in the source and are kept apart here.

Test system: subgenomic HCV Replicon in HuH-7 cells
Assay: Assay for inhibition of HCV RNA replication (replicon, in situ ribonuclease protection SPA)
Assay type: cell-based, Hepatitis C Virus
[1] = Hepatitis C virus, HuH-7 hepatoma cells containing a subgenomic HCV Replicon, inhibition of HCV RNA replication, read-out: EC50
[2] = HuH-7 hepatoma cells containing a subgenomic HCV Replicon, inhibition of HCV RNA replication, read-out: EC50

Row | SMILES | EC50 [1] [µM] | further results
1 | CCCC(CCC)COC(=O)[C@H](C)NP(=O)(O)OC[C@H]1O[C@@H](n2ccc(N)nc2=O)[C@](C)(O)[C@@H]1O [Example 2, 5′-O-[hydroxy[[(1S)-1-methyl-2-oxo-2-[(2-propylpentyl)oxy]ethyl]amino]phosphinyl]-2′-C-methylcytidine] | 6 | –
2 | CCCC(CCC)c1noc([C@H](C)NP(=O)(O)OC[C@H]2O[C@@H](n3ccc(N)nc3=O)[C@](C)(O)[C@@H]2O)n1 [Example 8, [(3aR, 4aR, 6R, 6aR)-6-(4-amino-2-oxopyrimidin-1(2H)-yl)-3,4-dihydroxy-4-methyltetrahydrofuran-2-yl]methyl hydrogen{(1S)-1-[3-(1-propylbutyl)-1,2,4-oxadiazol-5-yl]ethyl}amidophosphate] | – | EC50 [2]: 5.4 µM
3 | C[C@H](NP(=O)(O)OC[C@H]1O[C@@H](n2ccc(N)nc2=O)[C@](C)(O)[C@@H]1O)C(=O)OC1CCCCCCC1 [Example 5, 5′-O-[[[(1S)-2-(cyclooctyloxy)-1-methyl-2-oxoethyl]amino]hydroxyphosphinyl]-2′-C-methylcytidine] | 9.9 | –
4 | CCCC(CCC)c1nnc([C@H](C)NP(=O)(O)OC[C@H]2O[C@@H](n3ccc(N)nc3=O)[C@](C)(O)[C@@H]2O)o1 [Example 9, 5-O-[hydroxy[[1-[5-(1-propylbutyl)-1,3,4-oxadiazol-2-yl]ethyl]amino]phosphinyl]-2′-C-methylcytidine] | – | EC50 (Hepatitis C virus, Huh-7): 10.6 µM
5 | C[C@H](NP(=O)(O)OC[C@H]1O[C@@H](n2ccc(N)nc2=O)[C@](C)(O)[C@@H]1O)C(=O)OC1CCCCCC1 [Example 4, 5′-O-[[[(1S)-2-(cycloheptyloxy)-1-methyl-2-oxoethyl]amino]hydroxyphosphinyl]-2′-C-methylcytidine] | 9.9 | –
6 | CCCC(CCC)C(=O)OCCNP(=O)(O)OC[C@H]1O[C@@H](n2ccc3c(N)ncnc32)[C@](C)(O)[C@@H]1O [Example 11, 5′-O-[hydroxyl[[2-[(1-oxo-2-propylpentyl)oxy]ethyl]amino]phosphinyl]-2′-C-methyl-7-deaza adenosine] | 0.7 | –
7 | CCCC(CCC)COC(=O)C(C)NP(=O)(O)OC[C@H]1O[C@@H](n2ccc3c(N)ncnc32)[C@](C)(O)[C@@H]1O (stereo partly shown) [Example 10, 5′-O-[hydroxyl[[1-methyl-2-oxo-2-[(propylpentyl)oxy]ethyl]amino]phosphinyl]-2′-C-methyl-7-deaza adenosine] | – | EC50 [2]: 1.1 µM
